Test results from patent publication US5164296A, “Assay methods involving ouabain” (priority 1990, dated 1992).
Where two headings read alike, the source gives them in different places. Ends that are not written are not given here.

B1: Renin (protein, UniProt P00797 67-406, looked up)
Renin: LTLGNTTSSVILTNYMDTQYYGEIGIGTPPQTFKVVFDTGSSNVWVPSSKCSRLYTACVYHKLFDASDSSSYKHNGTELTLRYSTGTVSGFLSQDIITVGGITVTQMFGEVTEMPALPFMLAEFDGVVGMGFIEQAIGRVTPIFDNIISQGVLKEDVFSFYYNRDSENSQSLGGQIVLGGSDPQHYEGNFHYINLIKTGVWQIQMKGVSVGSSTLLCEDGCLALVDTGASYISGSTSSIEKLMEALGAKKRLFDYVVKCNEGPTLPDISFHLGGKEYTLTSADYVFQESYSSKKLCTLAIHAMDIPPPTGPTWALGATFIRKFYTEFDRRNNRIGFALAR

How the values were obtained:
[1] = biological target: T1, (Na^+ +K^+)ATPase (Canis lupus familiaris, UniProt P50997); test: Competition for ^3 H-ouabain binding to purified (Na^+ +K^+)ATPase; parameters: species or system dog; settings: type II conditions
T1 construct: (Na^+ +K^+)ATPase was purified from the outer medulla of dog kidney; from tissue; host or cells: dog kidney outer medulla, purified membrane enzyme
Description: (§1) More specifically, (Na^+ +K^+)ATPase was purified from the outer medulla of dog kidney using the angle rotor procedure (Jorgensen, P.L., Biochim. Biophys. Acta, 356:36-52 (1974)) and stored frozen at -60° C. at 1.0 mg/ml in 25 mM imidazole-HCl (pH 7.5) and 1.0 mM EDTA, in small aliquots. (Na^+ +K^+)ATPase activity was determined at 37° C. from rate measurements in 1.0 ml of coupled optical assay mixture comprising 20 mM KCl, 100 mM NaCl, 4.5 mM MgSO4, 5.0 mM EGTA, 3.0 mM ATP-Na2, 1.2 mM phosphoenol-pyruvate-tricyclohexylammonium, 0.3 mM NADH, 100 mM TES-Tris (ph 7.4), 5.0 units of lactate dehydrogenase, and 5.0 units of pyruvate kinase (Hamlyn, J.M. et al, Nature, 300:650-652 (1982)). (Na^+ +K^+)ATPase activity was 99% ouabain-inhibitable with activities of 10-18 μmol/min/mg of membrane protein. Maximally effective concentrations of digitalis-like activity had no effect on the enzymatic components of the coupled optical assay as determined by inspection of rates in response to addition of 20-50 μM ADP. The maximal capacity of the coupled optical assay was at least 500-2000 fold greater than the typical maximal hydrolytic rate of the (Na^+ +K^+)ATPase and was not rate limiting under any assay condition described herein.
Competition for ^3 H-ouabain (Amersham Corp. or DuPont-New England Nuclear) binding was carried out in 670 μl of binding buffer comprising, in final concentrations, 10 mM TES-Tris (pH 7.4), 0.5 mM EDTA, 5.0 mM MgCl2 and 5.0 mM Na2 HPO4 (hereinafter "binding buffer") and 50 nM ouabain containing ^3 H-ouabain tracer, and including the unknown sample. Binding was initiated by addition of 0.1-2 μg of purified (Na^+ +K^+)ATPase and the reaction performed for 2 hr at 37° C. […] Trapped ^3 H-ouabain was determined by scintillation counting, following 12 hr of soaking the filters in 4.0 ml of Beckman Ready Protein ™ scintillation cocktail (Beckman, Palo Alto, Calif.). […] All binding data were corrected for quench, and specific binding was expressed as pmol/mg of enzyme protein. […]

[2] = test system: polyclonal anti-ouabain antisera; assay type: binding, rabbit
Description: Polyclonal anti-ouabain antisera was obtained from the immunized rabbits by collecting blood from the central ear artery, allowing the blood to clot for 2 hr at room temperature, centrifuging the clotted blood at 1000 ×g for 10 min, and removing the polyclonal anti-ouabain antisera.
The polyclonal antisera was extensively characterized by testing the degree to which it cross-reacted with (1) other substances known to be present in human body fluids and tissues, and (2) cardiotonic steroids closely related to ouabain but not known to be present in human body fluids and tissues.

[3] = test system: left atria from guinea pigs; test: Inotropic properties in left atria from guinea pigs; parameters: species or system guinea pig
Description: Atria were incubated at 37° C. in phosphate buffered saline comprising 130 mM NaCl, 5.4 mM KCl, 1.8 mM MgCl2, 0.4 mM NaH2 PO4, 19 mM NaHCO3 and 5.4 g of glucose (pH 7.3-7.4), and gassed with 95% O2 /5% CO2. Tissues were stimulated at 1 Hz with twice threshold square pulses (0.8 to 1.0 V) of 0.7 to 1.2 msec duration. Resting tension was optimized for maximum isometric force generation. Control records were obtained once the phasic force was stabilized. […] For comparison, 200 nM plant ouabain evoked an inotropic response of 311±41% (N=4 experiments) which returned to normal with a half-time of approximately 5 min upon washout.

[4] = test system: rings of aorta from guinea pigs; test: Vasoactive properties in rings of aorta from guinea pigs; parameters: species or system guinea pig
Description: The aortic rings were incubated at 37° C. in phosphate buffered saline. The rings were submaximally contracted for 3 to 7 min, every 35 min, with 0.2 or 1.0 μM histamine. […] The apparent half-time for washout of the augmented tension response in the presence of plant ouabain was also much greater than 60 min.

[5] = biological target: T1, (Na^+ +K^+)ATPase; test: Inhibition of (Na^+ +K^+)ATPase activity (coupled optical assay); assay type: biochemical, dog; settings: purified dog kidney enzyme, 37° C.
Description: as §1
The inhibition of (Na^+ +K^+)ATPase was carried out as described above.

[6] = Table 1, polyclonal anti-ouabain antisera

Molecule | cross-reactivity (relative to ouabain) [2, 6] | other results
C[C@@H]1O[C@@H](O[C@H]2C[C@@H](O)[C@]3(CO)[C@H]4[C@H](O)C[C@]5(C)[C@@H](C6=CC(=O)OC6)CC[C@]5(O)[C@@H]4CC[C@]3(O)C2)[C@H](O)[C@H](O)[C@H]1O [^3 H-ouabain] | – | ^3 H-ouabain bound (typical values) [1]: 75-85 pmol/mg of enzyme protein
C[C@]12CCC(=O)C=C1CC[C@@H]1[C@@H]2[C@@H](O)C[C@@]2(C)[C@H]1CC[C@]2(O)C(=O)CO [Hydrocortisone] | None detected | –
CC(=O)O[C@H]1C[C@H](O[C@H]2[C@@H](O)C[C@H](O[C@H]3[C@@H](O)C[C@H](O[C@H]4CC[C@@]5(C)[C@H](CC[C@@H]6[C@@H]5C[C@@H](O)[C@]5(C)[C@@H](C7=CC(=O)OC7)CC[C@]65O)C4)O[C@@H]3C)O[C@@H]2C)O[C@H](C)[C@H]1O[C@@H]1O[C@H](CO)[C@@H](O)[C@H](O)[C@H]1O [Lanatoside C] | 2.49% | –
CC(=O)O[C@]1(C(C)=O)CC[C@H]2[C@@H]3C=C(Cl)C4=CC(=O)CC[C@]4(C)[C@H]3CC[C@@]21C [Chlormadinone acetate] | None detected | –
C[C@H]1O[C@@H](O[C@H]2[C@@H](O)C[C@H](O[C@H]3[C@@H](O)C[C@H](O[C@H]4CC[C@@]5(C)[C@H](CC[C@@H]6[C@@H]5C[C@@H](O)[C@]5(C)[C@@H](C7=CC(=O)OC7)CC[C@]65O)C4)O[C@@H]3C)O[C@@H]2C)C[C@H](O)[C@@H]1O [Digoxin] | 5.2% | –
C[C@]12CC[C@H](O)CC1=CC[C@@H]1[C@@H]2CC[C@]2(C)C(=O)CC[C@@H]12 [Dehydroisoandrosterone] | None detected | –
C[C@]12CC[C@H](OS(=O)(=O)O)CC1=CC[C@@H]1[C@@H]2CC[C@]2(C)C(=O)CC[C@@H]12 [Dehydroisoandrosterone-3-sulfate] | None detected | –
C[C@]12CCC(=O)C=C1CC[C@@H]1[C@@H]2[C@@H](O)C[C@]2(C=O)[C@@H](C(=O)CO)CC[C@@H]12 [Aldosterone] | 0.012% | –
C[C@H]1O[C@@H](O[C@H]2[C@@H](O)C[C@H](O[C@H]3[C@@H](O)C[C@H](O[C@H]4CC[C@@]5(C)[C@H](CC[C@@H]6[C@@H]5CC[C@]5(C)[C@@H](C7=CC(=O)OC7)CC[C@]65O)C4)O[C@@H]3C)O[C@@H]2C)C[C@H](O)[C@@H]1O [Digitoxin] | 28% | –
CC(=O)[C@H]1CC[C@H]2[C@@H]3CCC4=CC(=O)CC[C@]4(C)[C@H]3CC[C@]12C [Progesterone] | 0.0011% | –
C[C@@H]1O[C@@H](O[C@H]2C[C@@H](O)[C@]3(CO)[C@H]4[C@H](O)C[C@]5(C)[C@@H](C6COC(=O)C6)CC[C@]5(O)[C@@H]4CC[C@]3(O)C2)[C@H](O)[C@H](O)[C@H]1O (stereo partly drawn) [Dihydroouabain] | 0.16% | –
Angiotensin I (DRVYIHPFHL; Angiotensin-1; UniProt P01019 25-34, looked up) | None detected | –
Atrial natriuretic peptide (SLRRSSCFGGRMDRIGAQSGLGCNSFRY; ends and bridges not checked; cysteine pairing not given here; UniProt P01160 124-151, looked up) | None detected | –
C[C@]12C[C@@H](O)[C@H]3[C@@H](CC[C@]4(O)C[C@@H](O)C[C@@H](O)[C@]34CO)[C@@]1(O)CC[C@@H]2C1=CC(=O)OC1 [Ouabagenin] | 40% | –
C[C@]12CC[C@H]3[C@@H](CCC4=CC(=O)CC[C@@]43C)[C@@H]1CC[C@@H]2O [Testosterone] | – | cross-reactivity (relative to ouabain) ([2]; Table 1, printed without unit): 0.0042
NC(=O)CC[C@@H]1NC(=O)[C@H](Cc2ccccc2)NC(=O)[C@H](Cc2ccc(O)cc2)NC(=O)[C@@H](N)CSSC[C@@H](C(=O)N2CCC[C@H]2C(=O)N[C@@H](CCCN=C(N)N)C(=O)NCC(N)=O)NC(=O)[C@H](CC(N)=O)NC1=O [Arginine vasopressin] | None detected | –
C[C@]12CC[C@H]3[C@@H](CCC4=CC(=O)CC[C@@]43C)[C@@H]1CC[C@@H]2C(=O)CO [Deoxycorticosterone] | 0.0046% | –
CC(C)CCC[C@@H](C)[C@H]1CC[C@H]2[C@@H]3CC=C4C[C@@H](O)CC[C@]4(C)[C@H]3CC[C@]12C [Cholesterol] | None detected | –
C[C@]12C[C@H](O)[C@H]3[C@@H](CCC4=CC(=O)CC[C@@]43C)[C@@H]1CC[C@@H]2C(=O)CO [Corticosterone] | 0.0035% | –
C[C@@H]1O[C@@H](O[C@H]2C[C@@H](O)[C@]3(CO)[C@H]4[C@H](O)C[C@]5(C)[C@@H](C6=CC(=O)OC6)CC[C@]5(O)[C@@H]4CC[C@]3(O)C2)[C@H](O)[C@H](O)[C@H]1O [ouabain] | – | activation at 0.2 µM ([3]; Cavia porcellus, read-out: inotropic response): 311 ± 41%; apparent half-time for washout of the inotropic response ([3]; upon washout): approximately 5 min; effect on baseline tension ([4]; 170 nM human ouabain, 200 nM plant ouabain): did not affect baseline tension; activity at 0.2 µM ([4]; Cavia porcellus, read-out: histamine-evoked tension, % of control): 146 ± 16%; apparent half-time for washout of the augmented tension response ([4]; upon washout): greater than 60 min; (Na^+ +K^+)ATPase activity ouabain-inhibitable [5]: 99%
O=C(O)CC(O)(CC(=O)O)C(=O)O [Citrate] | None detected | –
C[C@]12CC[C@H]3[C@@H](CC[C@]4(O)C[C@@H](O)CC[C@]34C=O)[C@@]1(O)CC[C@@H]2C1=CC(=O)OC1 [Strophanthidin] | 66% | –
Angiotensin II | None detected | –
C[C@]12CC[C@@H]3c4ccc(O)cc4CC[C@H]3[C@@H]1CC[C@@H]2O [β-estradiol] | None detected | –
B1 | None detected | –
